Reference: US20240299285A1, “PERSONAL CARE COMPOSITION” (The Procter & Gamble Company, priority 2023, published 2024)

Test: Solubility Method (cooling/heating cycles, % transmittance, visual precipitate check)
Format: physicochemical
Conditions: SLT:SMLT 10.5:1, co-surfactant 1 % or 4 %, pH 5.2
Excerpt: This method can be used to determine the solubility characteristics of a material (e.g., an acyl taurate) in a composition. The method uses heating and cooling cycles to simulate environmental conditions commonly experienced by a personal care product and accelerate the processes that can lead to product instability.
The test composition (e.g., an aqueous surfactant composition consisting of an acyl taurate surfactant and an N-alkyl acyl taurate surfactant and/or a co-surfactant, and/or a cationic polymer and water) is placed in a closed container to prevent evaporation and heated at 40° C. for a minimum of 30 minutes or until the composition is visually clear & free of precipitates. One mL of the test solution is added to a Crystal-16 vial, closed with a basic cap and placed into a Technobis Crystallization Systems Crystal16® Model 2.2 or equivalent. The % transmittance readings are set to record 1 measurement every 300 seconds. The vials are cooled to 5° C. at a rate of 0.25° C./min and held at 5° C. for 8 hours (cooling cycle). The vials are then heated to 20° C. at a rate of 0.25° C./min and held at 20° C. for 8 hours (heating cycle). […] When the final % T recorded at the end of the heating cycle is greater than or equal to 90% and no precipitate is observed the sample is considered soluble.

Row | effect of co-surfactant on acyl taurate (SLT) solubility | Substance
1 | did not provide the desired solubility | cocamidopropyl hydroxysultaine [CAPHS]
2 | did not provide the desired solubility | sodium lauroamphoacetate
